In patent US20120238549A1, “Nuclear Hormone Receptor Modulators” (ABBOTT LABORATORIES, priority 2011, published 2012):

biological target: T1, Glucocorticoid Receptor (GR) (Homo sapiens, UniProt P04150); test: GR Florescence Polarization Assay (PolarScreen Glucocorticoid Receptor Competitor Assay, Red); settings: Fluorescense polarization binding ranges; competition with fluorescent glucocorticoid, incubated overnight at 4° C.
T1 construct: purchased Invitrogen P2893
T1 sequence (P04150 1-777): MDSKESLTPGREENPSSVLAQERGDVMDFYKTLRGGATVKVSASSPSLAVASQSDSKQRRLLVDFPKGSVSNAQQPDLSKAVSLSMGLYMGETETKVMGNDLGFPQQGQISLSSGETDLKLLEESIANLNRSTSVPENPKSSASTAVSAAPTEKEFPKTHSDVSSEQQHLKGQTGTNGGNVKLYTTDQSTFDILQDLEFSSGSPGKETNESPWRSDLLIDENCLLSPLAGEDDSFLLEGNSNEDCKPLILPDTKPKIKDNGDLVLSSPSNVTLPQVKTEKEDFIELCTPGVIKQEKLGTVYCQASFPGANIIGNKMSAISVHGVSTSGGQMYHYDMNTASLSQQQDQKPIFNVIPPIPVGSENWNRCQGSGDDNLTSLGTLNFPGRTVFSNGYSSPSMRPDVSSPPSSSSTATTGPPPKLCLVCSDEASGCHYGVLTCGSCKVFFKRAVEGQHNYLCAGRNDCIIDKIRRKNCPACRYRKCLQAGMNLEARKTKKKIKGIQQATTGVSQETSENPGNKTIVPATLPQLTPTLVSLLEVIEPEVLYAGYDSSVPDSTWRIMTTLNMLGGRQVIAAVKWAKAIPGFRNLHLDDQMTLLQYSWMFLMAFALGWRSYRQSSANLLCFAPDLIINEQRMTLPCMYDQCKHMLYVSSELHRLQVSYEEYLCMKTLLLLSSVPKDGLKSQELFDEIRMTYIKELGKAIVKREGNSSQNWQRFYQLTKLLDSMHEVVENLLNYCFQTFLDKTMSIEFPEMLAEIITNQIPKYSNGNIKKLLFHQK
Procedure: GR Florescence Polarization Assay Florescence polarization assays were carried out using the PolarScreen™ Glucocorticoid Receptor Competitor Assay, Red from Invitrogen (P2893). The assay buffer was prepared according to the manufacturer's protocol and used to dilute the fluorescent glucocorticoid and GR. Compounds were prepared and serial diluted 1:4 in DMSO. Compound, fluorescent glucocorticoid and GR were added in a final volume of 20 μL and incubated overnight at 4° C. Fluorescent polarization was measured on the Perkinelmer Envision®.

`Cc1ncccc1NC(=O)c1ccc2c(c1)CCC[C@H]1C[C@@](O)(COC3COC3)CC[C@@]21Cc1ccccc1` (racemic) [Example 96] and `Cc1ncccc1NC(=O)c1ccc2c(c1)CCC[C@H]1C[C@@](O)(COC3CCOCC3)CC[C@@]21Cc1ccccc1` (racemic) [Example 102] cannot be ordered by IC50: less than 100 nM for the first, less than 100 nM for the second.

`Cc1ncccc1NC(=O)c1ccc2c(c1)CCC[C@H]1C[C@@](O)(COC(C)C)CC[C@@]21Cc1ccccc1` (racemic) [Example 97] and `CC[C@@]1(O)CC[C@@]2(Cc3ccccc3)c3ccc(C(=O)Nc4cccnc4C)cc3CCC[C@H]2C1` (single isomer, unassigned) [Example 14] cannot be ordered by IC50: less than 100 nM for the first, less than 100 nM for the second.

`CCCOC[C@@]1(O)CC[C@@]2(Cc3ccccc3)c3ccc(C(=O)Nc4cccnc4C)cc3CCC[C@H]2C1` (racemic) [Example 101] and `Cc1ncccc1NC(=O)c1ccc2c(c1)CCC[C@H]1C[C@@](O)(COCCS(C)(=O)=O)CC[C@@]21Cc1ccccc1` (racemic) [Example 105] cannot be ordered by IC50: less than 100 nM for the first, less than 100 nM for the second.

Compared with `Cc1ncccc1NC(=O)c1ccc2c(c1)CCC[C@H]1C[C@@](O)(COc3ccccc3)CC[C@@]21Cc1ccccc1` (racemic) [Example 103], `Cc1ncccc1NC(=O)c1ccc2c(c1)CCC[C@H]1C[C@@](O)(CO)CC[C@@]21Cc1ccccc1` (racemic) [Example 104] is higher in IC50: less than 100 nM for the first, 100 to 1000 nM for the second. The first is the more potent here.

First: CCC[C@@]1(O)CC[C@@]2(CC)c3ccc(C(=O)Nc4cccnc4C)cc3OCC[C@H]2C1 (racemic) [Example 119, (7aS,9R,11aR)-11a-Ethyl-9-hydroxy-N-(2-methylpyridin-3-yl)-9-propyl-6,7,7a,8,9,10,11,11a-octahydrodibenzo[b,d]oxepine-3-carboxamide; compound with (7aR,9S,11aS)-11a-ethyl-9-hydroxy-N-(2-methylpyridin-3-yl)-9-propyl-6,7,7a,8,9,10,11,11a-octahydrodibenzo[b,d]oxepine-3-carboxamide]
Second: CCC[C@]1(O)CC[C@]2(CC)c3ccc(C(=O)Nc4cccnc4C)cc3CCC[C@@H]2C1 (single isomer, unassigned) [Example 44]
The IC50 of the first is lower: less than 100 nM for the first, 100 to 1000 nM for the second. The first is the more potent here.

`CCC[C@@]1(O)CC[C@@]2(CC)c3ccc(C(=O)Nc4cccnc4C)cc3C=CC[C@H]2C1` (racemic) [Example 128, (7aS,9R,11aR)-11a-Ethyl-9-hydroxy-9-propyl-7a,8,9,10,11,11a-hexahydro-7H-dibenzo[a,c]cycloheptene-3-carboxylic acid (2-methyl-pyridin-3-yl)-amide compound with (7aR,9S,11aS)-11a-ethyl-9-hydroxy-9-propyl-7a,8,9,10,11,11a-hexahydro-7H-dibenzo[a,c]cycloheptene-3-carboxylic acid (2-methyl-pyridin-3-yl)-amide] and `CCC[C@@]1(O)CC[C@@]2(CC)c3ccc(C(=O)Nc4cccnc4C)cc3COC[C@H]2C1` (racemic) [Example 136, (7aS,9R,11aR)-11a-Ethyl-9-propyl-9-hydroxy-N-(2-methylpyridin-3-yl)-5,7,7a,8,9,10,11,11a-octahydrodibenzo[c,e]oxepine-3-carboxamide; compound with (7aR,9S,11aS)-11a-ethyl-9-propyl-9-hydroxy-N-(2-methylpyridin-3-yl)-5,7,7a,8,9,10,11,11a-octahydrodibenzo[c,e]oxepine-3-carboxamide] cannot be ordered by IC50: less than 100 nM for the first, less than 100 nM for the second.

Compared with `CC[C@@]12CC[C@](O)(c3ccccc3)C[C@@H]1CCOc1cc(C(=O)Nc3cccnc3C)ccc12` (racemic) [Example 134, (7aS,9R,11aR)-11a-Ethyl-9-hydroxy-N-(2-methylpyridin-3-yl)-9-phenyl-6,7,7a,8,9,10,11,11a-octahydrodibenzo[b,d]oxepine-3-carboxamide; compound with (7aR,9S,11aS)-11a-ethyl-9-hydroxy-N-(2-methylpyridin-3-yl)-9-phenyl-6,7,7a,8,9,10,11,11a-octahydrodibenzo[b,d]oxepine-3-carboxamide], `CC[C@@]12C[C@@H](O)[C@](O)(c3ccccc3)C[C@@H]1CCOc1cc(C(=O)Nc3cccnc3C)ccc12` (racemic) [Example 135, (7aS,9R,10R,11aR)-11a-Ethyl-9,10-dihydroxy-N-(2-methylpyridin-3-yl)-9-phenyl-6,7,7a,8,9,10,11,11a-octahydrodibenzo[b,d]oxepine-3-carboxamide; compound with (7aR,9S,10S,11aS)-11a-ethyl-9,10-dihydroxy-N-(2-methylpyridin-3-yl)-9-phenyl-6,7,7a,8,9,10,11,11a-octahydrodibenzo[b,d]oxepine-3-carboxamide] is higher in IC50: less than 100 nM for the first, 100 to 1000 nM for the second. The first is the more potent here.

First: CC[C@@]1(O)CC[C@@]2(Cc3ccccc3)c3cc(C(=O)Nc4cccnc4C)cn3CCC[C@H]2C1 (racemic) [Example 144, (7aS,9R,11aS)-11a-Benzyl-9-ethyl-9-hydroxy-N-(2-methylpyridin-3-yl)-6,7,7a,8,9,10,11,11a-octahydro-5H-benzo[c]pyrrolo[1,2-a]azepine-2-carboxamide; compound with (7aR,9S,11aR)-11a-benzyl-9-ethyl-9-hydroxy-N-(2-methylpyridin-3-yl)-6,7,7a,8,9,10,11,11a-octahydro-5H-benzo[c]pyrrolo[1,2-a]azepine-2-carboxamide]
Second: CC[C@]1(O)CC[C@]2(Cc3ccccc3)c3ccc(C(=O)Nc4cccnc4C)cc3CCC[C@@H]2C1 (single isomer, unassigned) [Example 15]
The IC50 of the first is higher: 1000 to 10000 nM for the first, 100 to 1000 nM for the second.

`CCC[C@@]1(O)CC[C@@]2(CC)c3ccc(C(=O)Nc4ccccc4N)cc3CCC[C@H]2C1` (racemic) [Example 145, (7aS,9R,11aR)-11a-Ethyl-9-hydroxy-9-propyl-6,7,7a,8,9,10,11,11a-octahydro-5H-dibenzo[a,c]cycloheptene-3-carboxylic acid (2-amino-phenyl)-amide; compound with (7aR,9S,11aS)-11a-ethyl-9-hydroxy-9-propyl-6,7,7a,8,9,10,11,11a-octahydro-5H-dibenzo[a,c]cycloheptene-3-carboxylic acid (2-amino-phenyl)-amide] and `CCC[C@@]1(O)CC[C@@]2(CC)c3ccc(C(=O)Nc4cccnc4N)cc3CCC[C@H]2C1` (racemic) [Example 149, (7aS,9R,11aR)-11a-Ethyl-9-hydroxy-9-propyl-6,7,7a,8,9,10,11,11a-octahydro-5H-dibenzo[a,c]cycloheptene-3-carboxylic acid (2-amino-pyridin-3-yl)-amide; compound with (7aR,9S,11aS)-11a-ethyl-9-hydroxy-9-propyl-6,7,7a,8,9,10,11,11a-octahydro-5H-dibenzo[a,c]cycloheptene-3-carboxylic acid(2-amino-pyridin-3-yl)-amide] cannot be ordered by IC50: less than 100 nM for the first, less than 100 nM for the second.

First: CCC[C@@]1(O)CC[C@@]2(CC)c3ccc(-c4nc5ccccc5[nH]4)cc3CCC[C@H]2C1 (racemic) [Example 146, (3R,4aS,11bR)-9-(1H-Benzoimidazol-2-yl)-11b-ethyl-3-propyl-2,3,4,4a,5,6,7,11b-octahydro-1H-dibenzo[a,c]cyclohepten-3-ol; compound with (3S,4aR,11bS)-9-(1H-benzoimidazol-2-yl)-11b-ethyl-3-propyl-2,3,4,4a,5,6,7,11b-octahydro-1H-dibenzo[a,c]cyclohepten-3-ol]
Second: CCC[C@@]1(O)CC[C@@]2(CC)c3ccc(C(=O)Nc4cccnc4C)cc3CCC[C@H]2C1 (single isomer, unassigned) [Example 45]
The IC50 of the first is higher: 100 to 1000 nM for the first, less than 100 nM for the second.

Compared with `CCC[C@@]1(O)CC[C@@]2(CC3CC3)c3ccc(C(=O)Nc4cccnc4C)cc3CCC[C@H]2C1` (racemic) [Example 150, (7aR,9R,11aS)-11a-Cyclopropylmethyl-9-hydroxy-9-propyl-6,7,7a,8,9,10,11,11a-octahydro-5H-dibenzo[a,c]cycloheptene-3-carboxylic acid (2-methyl-pyridin-3-yl)-amide; compound with (7aS,9S,11aR)-11a-cyclopropylmethyl-9-hydroxy-9-propyl-6,7,7a,8,9,10,11,11a-octahydro-5H-dibenzo[a,c]cycloheptene-3-carboxylic acid (2-methyl-pyridin-3-yl)-amide], `CC[C@]12CC[C@](C)(O)C[C@H]1CCCc1cc(C(=O)Nc3cccnc3C)ccc12` (single isomer, unassigned) [Example 59] is higher in IC50: less than 100 nM for the first, 1000 to 10000 nM for the second. The first is the more potent here.

Compared with `CC[C@@]1(O)CC[C@@]2(Cc3ccccc3)c3ccc(C(=O)Nc4cccnc4C)cc3C(=O)CC[C@H]2C1` (single isomer, unassigned) [Example 24], `CC[C@]1(O)CC[C@]2(Cc3ccccc3)c3ccc(C(=O)Nc4cccnc4C)cc3C(=O)CC[C@@H]2C1` (single isomer, unassigned) [Example 25] is higher in IC50: less than 100 nM for the first, 1000 to 10000 nM for the second.

In the case of `CC[C@@]12CC[C@@](C)(O)C[C@@H]1CCCc1cc(C(=O)Nc3cccnc3C)ccc12` (single isomer, unassigned) [Example 60], the IC50 is reported as less than 100 nM.
